{"source": "patent US20250188033A1", "about": "“INHIBITOR OF REPLICATION PROTEIN A1 OF TRYPANOSOMA BRUCEI AND METHOD OF USE THEREOF” (Research Foundation of the City University of New York, published 2025)", "key": {"T. brucei cells [1]": {"tested_on": "T. brucei cells", "assay": "Cell-cycle analysis by PI staining and flow cytometry", "type": "cell-based, Trypanosoma brucei", "details": "10 μM", "procedure": "(§1) Without wishing to be bound to any particular theory, if JC-229 indeed binds and inhibits the functions of TbRPA1, as predicted from the structural model, JC-229-treated trypanosome cells should show similar phenotypes to TbRPA1-depleted cells without affecting TbRPA1 protein levels. Wild-type T. brucei cells was treated with 10 μM JC-229 for 48 hours and the cell-cycle profile and efficiency of DNA synthesis was monitored. TbRPA1, γH2A, VSG3, and Tubulin protein levels were also monitored (FIG. 3A, FIG. 3B, FIG. 3C and FIG. 3D).\nAbout 10 million cells were collected after tetracycline induction or after JC-229 treatment. Cells were fixed with ice-cold 70% ethanol and incubated with 50 μg/ml PI (Sigma-Aldrich) and 200 μg/ml RNase A (Sigma-Aldrich) in 1×PBS (Corning) at 37° C. for 30 min in the dark. Samples were analyzed by flow cytometry (FACSVia, BD Biosciences) and FLOWJO®."}, "Trypanosoma brucei": {"tested_on": "Trypanosoma brucei", "assay": "ALAMARBLUE cell viability / growth assay of T. brucei cells", "type": "cell-based", "summary_of_the_method": "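Parasites seeded at 1×10^3 cells/ml in triplicate, exposed to compound for 72 h (0.0075% DMSO vehicle). AlamarBlue added for 4-6 h, fluorescence read at 560/590 nm; % viable cells calculated from RFU normalized to DMSO control, EC50 from 0.5-50 μM series.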"}, "T. brucei cells [2]": {"tested_on": "T. brucei cells", "assay": "Immunoblotting of TbRPA1, γH2A and VSG3 protein levels", "type": "cell-based, Trypanosoma brucei", "details": "10 μM; for fold increase in the levels of γH2A: relative to untreated, normalized to tubulin", "procedure": "as §1\nCells were harvested at indicated time points and suspended in Laemmli buffer (Bio-Rad) at 0.25 million cells per μl. Denatured proteins from whole cells were separated on a 4-20% gradient SDS-PAGE gel (BioRAD) and transferred to nitrocellulose membrane (GE Healthcare). The membranes were probed with polyclonal antibodies against TbRPA1 (a gift from Bibo Li laboratory) or γH2A (generated by ABclonal for this study), or monoclonal mouse antibodies against VSG3 (Antibody and Bioresource Core facility, MSKCC) or tubulin (Sigma) in 1× PBS with 0.1% Tween 20 and 1% milk (BioRAD) at 4° C. overnight. The membranes were then incubated with secondary antibodies conjugated with Horseradish Peroxidase (HRP) (GE healthcare) for the detection of corresponding proteins using chemiluminescence (Hyglo from Denville Scientific, ChemiDoc Imaging System from BioRAD)."}, "HEK293 cells": {"tested_on": "HEK293 cells", "assay": "ALAMARBLUE cell viability assay of human cells (HEK293)", "type": "cell-based", "procedure": "(§2) Human cell lines, HeLa and HEK293 were maintained in Dulbecco's modified MEM (D-MEM, GIBCO) supplemented with 10% fetal bovine serum (GIBCO) at 37° C. with 5% CO2.\n(§3) To determine the inhibitory effect of JC-229 on human cells, HeLa and HEK293 cells were suspended in 180 μl D-MEM with 10% FBS and plated at a density of 2×10^4 cells/ml in triplicate. Cells were adhered overnight, and the medium was replaced, and cells were then incubated for 72 hours with increasing concentrations of JC-229 (0.5 μM to 50 μM) and cell viability was determined using the ALAMARBLUE® dye as described above. Percent viability was plotted using GraphPad Prism software. […] The EC50 values were estimated using the concentration of JC-229 that cause 50% reduction of cell viability (inhibitor vs. normalized response, variable slope)."}, "HeLa cells": {"tested_on": "HeLa cells", "assay": "ALAMARBLUE cell viability assay of human cells (HeLa)", "type": "cell-based", "procedure": "as §2, §3"}, "TbRPA1 DBD-AB S105T": {"molecular_target": "TbRPA1 DBD-AB S105T (Trypanosoma brucei, UniProt Q384B5 Q384B5:1-257, S105T)", "assay": "EMSA; 10 mM MgCl2, RT; not inhibited by JC-229", "details": "tags: 6xHis, pET28a, E. coli; label: 5' IRDye800"}, "TbRPA1 DBD-AB W188A": {"molecular_target": "TbRPA1 DBD-AB W188A (Trypanosoma brucei, UniProt Q384B5 Q384B5:1-257, W188A)", "assay": "EMSA; no ssDNA-binding activity", "details": "tags: 6xHis, pET28a, E. coli; label: 5' IRDye800"}, "TbRPA1 DBD-AB F64A": {"molecular_target": "TbRPA1 DBD-AB F64A (Trypanosoma brucei, UniProt Q384B5 Q384B5:1-257, F64A)", "assay": "EMSA; no ssDNA-binding activity", "details": "tags: 6xHis, pET28a, E. coli; label: 5' IRDye800"}, "[3]": {"details": "T. brucei, 2 μM, 72 hours, normalized to DMSO control"}, "[4]": {"details": "T. brucei, 10 μM, 72 hours, normalized to DMSO control"}, "[5]": {"details": "T. brucei, 5 μM, 72 hours, normalized to DMSO control"}}, "note": "Where two headings read alike, the source gives them in different places."}
{"molecule": "Cc1ccc(C(=O)Nc2ccc(Cl)c(Cl)c2)cc1S(=O)(=O)Nc1ccc(Cl)c(Cl)c1", "note": "[JC-229, N-(3,4-dichlorophenyl)-3-(N-(3,4-dichlorophenyl)sulfamoyl)-4-methylbenzamide]", "values": [{"measurement": "sub-G1 population", "setting": "T. brucei cells [1]; 32-hour time point", "value": "~45", "unit": "%"}, {"measurement": "cells that lost the bulk of their DNA", "setting": "T. brucei cells [1]; by 48 hours", "value": "~97", "unit": "%"}, {"measurement": "EC50", "setting": "Trypanosoma brucei; Trypanosoma brucei, 72 h, read-out: EC50 (T. brucei viability), T. brucei, 0.5 to 50 μM, 72 hours", "value": 6.6, "unit": "µM"}, {"measurement": "inhibition at 2 µM", "setting": "Trypanosoma brucei; Trypanosoma brucei, T. brucei, 2 μM, 72 hours, normalized to DMSO control", "value": 24, "unit": "%"}, {"measurement": "inhibition at 5 µM", "setting": "Trypanosoma brucei; Trypanosoma brucei, T. brucei, 5 μM, 72 hours, normalized to DMSO control", "value": 76, "unit": "%"}, {"measurement": "inhibition at 10 µM", "setting": "Trypanosoma brucei; Trypanosoma brucei, T. brucei, 10 μM, 72 hours, normalized to DMSO control", "value": 100, "unit": "%"}, {"measurement": "EC50", "setting": "Trypanosoma brucei; read-out: EC50 (T. brucei viability), T. brucei, 0.5 to 50 μM, 72 hours", "value": 6.5, "unit": "µM"}, {"measurement": "fold increase in the levels of γH2A", "setting": "T. brucei cells [2]; 16 hours", "value": "approximately 5 fold"}, {"measurement": "fold increase in VSG3 protein levels", "setting": "T. brucei cells [2]; 24 hours", "value": "~3", "unit": "fold"}, {"measurement": "fold increase in the levels of γH2A", "setting": "T. brucei cells [2]; 24 hours", "value": "~7", "unit": "fold"}, {"measurement": "EC50", "setting": "HEK293 cells; HEK293, 0.5 to 50 μM, 72 hours, estimated, curve did not reach bottom plateau", "value": 18.4, "unit": "µM"}, {"measurement": "inhibition at 6.5 µM", "setting": "HEK293 cells; HEK293, at 6.5 μM (EC50 to T. brucei)", "value": "< 20", "unit": "%"}, {"measurement": "inhibition at 50 µM", "setting": "HEK293 cells; HEK293, at 50 μM, the maximum concentration", "value": "< 100", "unit": "%"}, {"measurement": "EC50", "setting": "HeLa cells; 0.5 to 50 μM, 72 hours, estimated, curve did not reach bottom plateau", "value": 32.1, "unit": "µM"}, {"measurement": "inhibition at 6.5 µM", "setting": "HeLa cells; at 6.5 μM (EC50 to T. brucei)", "value": "< 20", "unit": "%"}, {"measurement": "inhibition at 50 µM", "setting": "HeLa cells; at 50 μM, the maximum concentration", "value": "< 100", "unit": "%"}]}
{"molecule": "Cc1ccc(C(=O)Nc2ccc(Cl)c(Cl)c2)cc1S(=O)(=O)n1c(CN)nc2ccccc21.O=C(O)C(F)(F)F", "note": "[JC-904]", "values": [{"measurement": "% Inhibition @2 μM", "setting": "Trypanosoma brucei; [3]", "value": 14, "unit": "%"}, {"measurement": "% Inhibition @10 μM", "setting": "Trypanosoma brucei; [4]", "value": 2, "unit": "%"}]}
{"molecule": "Cc1ccc(C(=O)Nc2ccc(Cl)c(Cl)c2)cc1S(=O)(=O)Nc1cc(C(C)C)n[nH]1", "note": "[JC-888]", "values": [{"measurement": "% Inhibition @2 μM", "setting": "Trypanosoma brucei; [3]", "value": 16, "unit": "%"}, {"measurement": "% Inhibition @5 μM", "setting": "Trypanosoma brucei; [5]", "value": 62.1, "unit": "%"}, {"measurement": "% Inhibition @10 μM", "setting": "Trypanosoma brucei; [4]", "value": 100, "unit": "%"}]}
{"molecule": "Cc1ccc(C(=O)Nc2ccc(Cl)c(Cl)c2)cc1S(=O)(=O)NCCNC(=S)Nc1ccccc1F", "note": "[JC-1001]", "values": [{"measurement": "% Inhibition @2 μM", "setting": "Trypanosoma brucei; [3]", "value": 49, "unit": "%"}, {"measurement": "% Inhibition @5 μM", "setting": "Trypanosoma brucei; [5]", "value": 66, "unit": "%"}]}
{"molecule": "Cc1ccc(C(=O)Nc2ccc(Cl)c(Cl)c2)cc1S(=O)(=O)NCCCN.O=C(O)C(F)(F)F", "note": "[JC-933]", "values": [{"measurement": "% Inhibition @2 μM", "setting": "Trypanosoma brucei; [3]", "value": 5, "unit": "%"}, {"measurement": "% Inhibition @10 μM", "setting": "Trypanosoma brucei; [4]", "value": 60, "unit": "%"}]}
{"molecule": "Cc1ccc(C(=O)Nc2ccc(Cl)c(Cl)c2)cc1S(=O)(=O)NCCCCCCO", "note": "[JC-898]", "values": [{"measurement": "% Inhibition @2 μM", "setting": "Trypanosoma brucei; [3]", "value": 6, "unit": "%"}, {"measurement": "% Inhibition @10 μM", "setting": "Trypanosoma brucei; [4]", "value": 57, "unit": "%"}]}
{"molecule": "Cc1ccc(C(=O)NCCO)cc1S(=O)(=O)Nc1ccc(Cl)c(Cl)c1", "note": "[JC-864]", "values": [{"measurement": "% Inhibition @2 μM", "setting": "Trypanosoma brucei; [3]", "value": "−20", "unit": "%"}, {"measurement": "% Inhibition @10 μM", "setting": "Trypanosoma brucei; [4]", "value": 42, "unit": "%"}]}
{"molecule": "TTTTTTTTTTTTTTTTTTTTTTTTTTTTTTTT (ssDNA)", "note": "[5'IRDye800-dT32]", "values": [{"measurement": "binding result", "setting": "TbRPA1 DBD-AB S105T", "value": "binds"}, {"measurement": "binding result", "setting": "TbRPA1 DBD-AB W188A", "value": "no binding"}, {"measurement": "binding result", "setting": "TbRPA1 DBD-AB F64A", "value": "no binding"}]}
